# Data taken from BindingDB's records for doi:10.1021/jm970470c (Warner-Lambert, 1997).
# Assay: Concentration required to inhibit 50% of the cultured colonies of H-Ras-Fcells.
row,Structure (SMILES),IC50 [nM]
1,O=C(CN(Cc1ccc(OCc2ccccc2)cc1)C(=O)[C@H](Cc1cnc[nH]1)NC(=O)OCc1ccccc1)NCC1(c2ccccc2)CCC1 [[(S)-1-((4-Benzyloxy-benzyl)-{[(1-phenyl-cyclobutylmethyl)-carbamoyl]-methyl}-carbamoyl)-2-(3H-imidazol-4-yl)-ethyl]-carbamic acid benzyl ester],88
2,O=C(CN(Cc1ccc(OCc2ccccc2)cc1)C(=O)[C@H](Cc1cnc[nH]1)NC(=O)OCc1ccccc1)NCC1(c2ccccc2)CCCC1 [[(S)-1-((4-Benzyloxy-benzyl)-{[(1-phenyl-cyclopentylmethyl)-carbamoyl]-methyl}-carbamoyl)-2-(3H-imidazol-4-yl)-ethyl]-carbamic acid benzyl ester],330
3,O=C(CN(Cc1ccc(OCc2ccccc2)cc1)C(=O)[C@H](Cc1cnc[nH]1)NC(=O)OCc1ccccc1)NCC1(c2ccccc2)CC1 [[(S)-1-((4-Benzyloxy-benzyl)-{[(1-phenyl-cyclopropylmethyl)-carbamoyl]-methyl}-carbamoyl)-2-(3H-imidazol-4-yl)-ethyl]-carbamic acid benzyl ester],180
4,O=C(CN(Cc1ccc(OCc2ccccc2)cc1)C(=O)[C@H](Cc1cnc[nH]1)NC(=O)OCc1ccccc1)NCCc1ccccc1 [[(S)-1-[(4-Benzyloxy-benzyl)-(phenethylcarbamoyl-methyl)-carbamoyl]-2-(1H-imidazol-4-yl)-ethyl]-carbamic acid benzyl ester],4300
5,O=C(CN(Cc1ccc(OCc2ccccc2)cc1)C(=O)[C@H](Cc1cnc[nH]1)NC(=O)OCc1ccccc1)NCCOCc1ccccc1 [[(S)-1-{(4-Benzyloxy-benzyl)-[(2-benzyloxy-ethylcarbamoyl)-methyl]-carbamoyl}-2-(1H-imidazol-4-yl)-ethyl]-carbamic acid benzyl ester],14300
6,N#CC(CNC(=O)CN(Cc1ccc(OCc2ccccc2)cc1)C(=O)[C@H](Cc1cnc[nH]1)NC(=O)OCc1ccccc1)c1ccccc1 (stereo partly drawn) [[(S)-1-{(4-Benzyloxy-benzyl)-[(2-cyano-2-phenyl-ethylcarbamoyl)-methyl]-carbamoyl}-2-(3H-imidazol-4-yl)-ethyl]-carbamic acid benzyl ester],190
7,CCC(CC)(CNC(=O)CN(Cc1ccc(OCc2ccccc2)cc1)C(=O)[C@H](Cc1cnc[nH]1)NC(=O)OCc1ccccc1)c1ccccc1 [[(S)-1-{(4-Benzyloxy-benzyl)-[(2-ethyl-2-phenyl-butylcarbamoyl)-methyl]-carbamoyl}-2-(3H-imidazol-4-yl)-ethyl]-carbamic acid benzyl ester],> 1000
8,CC(C)(CNC(=O)CN(Cc1ccc(OCc2ccccc2)cc1)C(=O)[C@H](Cc1cnc[nH]1)NC(=O)OCc1ccccc1)c1ccccc1 [[(S)-1-{(4-Benzyloxy-benzyl)-[(2-methyl-2-phenyl-propylcarbamoyl)-methyl]-carbamoyl}-2-(3H-imidazol-4-yl)-ethyl]-carbamic acid benzyl ester],180

# Continued, values first:
row,IC50 [nM],Structure (SMILES)
1,400,CCC(CNC(=O)CN(Cc1ccc(OCc2ccccc2)cc1)C(=O)[C@H](Cc1cnc[nH]1)NC(=O)OCc1ccccc1)c1ccccc1 (stereo partly drawn) [[(S)-1-{(4-Benzyloxy-benzyl)-[(2-phenyl-butylcarbamoyl)-methyl]-carbamoyl}-2-(3H-imidazol-4-yl)-ethyl]-carbamic acid benzyl ester]
2,> 1000,CCCC(CNC(=O)CN(Cc1ccc(OCc2ccccc2)cc1)C(=O)[C@H](Cc1cnc[nH]1)NC(=O)OCc1ccccc1)c1ccccc1 (stereo partly drawn) [[(S)-1-{(4-Benzyloxy-benzyl)-[(2-phenyl-pentylcarbamoyl)-methyl]-carbamoyl}-2-(3H-imidazol-4-yl)-ethyl]-carbamic acid benzyl ester]
3,310,CC(CNC(=O)CN(Cc1ccc(OCc2ccccc2)cc1)C(=O)[C@H](Cc1cnc[nH]1)NC(=O)OCc1ccccc1)c1ccccc1 (stereo partly drawn) [[(S)-1-{(4-Benzyloxy-benzyl)-[(2-phenyl-propylcarbamoyl)-methyl]-carbamoyl}-2-(3H-imidazol-4-yl)-ethyl]-carbamic acid benzyl ester]
4,710,C[C@H](Cc1ccccc1)NC(=O)CN(Cc1ccc(OCc2ccccc2)cc1)C(=O)[C@H](Cc1cnc[nH]1)NC(=O)OCc1ccccc1 [[(S)-1-{(4-Benzyloxy-benzyl)-[((R)-1-methyl-2-phenyl-ethylcarbamoyl)-methyl]-carbamoyl}-2-(3H-imidazol-4-yl)-ethyl]-carbamic acid benzyl ester]
5,570,C[C@@H](CNC(=O)CN(Cc1ccc(OCc2ccccc2)cc1)C(=O)[C@H](Cc1cnc[nH]1)NC(=O)OCc1ccccc1)c1ccccc1 [[(S)-1-{(4-Benzyloxy-benzyl)-[((R)-2-phenyl-propylcarbamoyl)-methyl]-carbamoyl}-2-(3H-imidazol-4-yl)-ethyl]-carbamic acid benzyl ester]
6,6300,C[C@@H](Cc1ccccc1)NC(=O)CN(Cc1ccc(OCc2ccccc2)cc1)C(=O)[C@H](Cc1cnc[nH]1)NC(=O)OCc1ccccc1 [[(S)-1-{(4-Benzyloxy-benzyl)-[((S)-1-methyl-2-phenyl-ethylcarbamoyl)-methyl]-carbamoyl}-2-(3H-imidazol-4-yl)-ethyl]-carbamic acid benzyl ester]
7,300,C[C@H](CNC(=O)CN(Cc1ccc(OCc2ccccc2)cc1)C(=O)[C@H](Cc1cnc[nH]1)NC(=O)OCc1ccccc1)c1ccccc1 [[(S)-1-{(4-Benzyloxy-benzyl)-[((S)-2-phenyl-propylcarbamoyl)-methyl]-carbamoyl}-2-(3H-imidazol-4-yl)-ethyl]-carbamic acid benzyl ester]
